Test results from patent publication US6821980B1, “Substituted 5-benzyl-2,4-diaminopyrimidines” (Basilea Pharmaceutica AG, priority 1999, dated 2004).
≈ marks a conversion by molar mass, not a printed value. Where two headings read alike, the source gives them in different places.

Assays:
[1] = test system: Streptococcus pneumoniae 1/1; assay: MIC against Streptococcus pneumoniae 1/1; type: cell-based; details: Table 2, Streptococcus pneumoniae 1/1, trimethoprim- and penicillin-resistant, serotype 6, clinical isolate; for MIC: read-out: MIC Sp1/1
[2] = test system: Staphylococcus aureus 101; assay: MIC against Staphylococcus aureus 101; type: cell-based; details: Table 2, Staphylococcus aureus 101, MRSA- and trimethoprim-resistant, clinical isolate; for MIC: read-out: MIC Sa101
[3] = target: T1, purified DHFR of strain Sp1/1 of Streptococcus pneumoniae (Streptococcus pneumoniae serotype 4, UniProt Q54801); type: biochemical; details: Table 2; IC50 against purified DHFR of strain Sp1/1
T1 sequence (Q54801 1-168 I100L): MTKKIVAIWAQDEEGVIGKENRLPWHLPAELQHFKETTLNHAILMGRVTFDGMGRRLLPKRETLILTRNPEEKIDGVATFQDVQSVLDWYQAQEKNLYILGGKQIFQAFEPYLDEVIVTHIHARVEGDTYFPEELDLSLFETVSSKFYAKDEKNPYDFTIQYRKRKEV

[4] = target: purified DHFR of strain 157/4696 of Staphylococcus aureus (Staphylococcus aureus, UniProt P13955); assay: biochemical
purified DHFR of strain 157/4696 of Staphylococcus aureus, sequence (P13955 whole entry): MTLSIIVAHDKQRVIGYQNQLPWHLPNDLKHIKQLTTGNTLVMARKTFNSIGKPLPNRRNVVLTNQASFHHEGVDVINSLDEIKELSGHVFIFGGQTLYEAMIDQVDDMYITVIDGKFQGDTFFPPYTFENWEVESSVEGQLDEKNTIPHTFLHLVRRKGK

[5] = Table 2, IC50 against purified DHFR of strain 157/4696 (highly trimethoprim-resistant; clinical isolate), read-out: DHFR Sa1

Compound	MIC [1]	MIC [2]	IC50 [3]	IC50 [4]	MIC Sp1/1 [1]	MIC Sa101 [2]	IC50 [4, 5]
CCOc1cc(Cc2cnc(N)nc2N)cc(OCCC2CCOCC2)c1-c1cccc(N)c1 [Example 07-j, 5-{3′-Amino-2-ethoxy-6-[2-(tetrahydro-pyran-4-yl)-ethoxy]-biphenyl-4-ylmethyl}-pyrimidine-2,4-diamine]	1 µg/mL (≈ 2.16 µM)	8 µg/mL (≈ 17.3 µM)	29 nM	1300 nM			
CCOc1cc(Cc2cnc(N)nc2N)cc(OCC)c1-c1ccc(N)nc1 [Example 04-q, 5-[4-(6-Amino-pyridin-3-yl)-3,5-diethoxy-benzyl]-pyrimidine-2,4-diamine]	4 µg/mL (≈ 10.5 µM)	8 µg/mL (≈ 21 µM)	69 nM	1900 nM			
CCOc1cc(Cc2cnc(N)nc2N)cc(OCC)c1-c1cccc(C#N)c1 [Example 02-u, 4′-(2,4-Diamino-pyrimidin-5-ylmethyl)-2′,6′-diethoxy-biphenyl-3-carbonitrile]	4 µg/mL (≈ 10.3 µM)	8 µg/mL (≈ 20.5 µM)	180 nM	4000 nM			
CCOc1cc(Cc2cnc(N)nc2N)cc(OS(=O)(=O)N(C)C2CC2)c1-c1cc(N)cc(F)c1 [Example 29-a, N-Cyclopropyl-N-methyl-sulphamic acid 3′-amino-4-(2,4-diamino-pyrimidin-5-ylmethyl)-6-ethoxy-5′-fluoro-biphenyl-2-yl ester]	2 µg/mL (≈ 3.98 µM)	1 µg/mL (≈ 1.99 µM)	6.3 nM	220 nM			
CCOc1cc(Cc2cnc(N)nc2N)cc(OS(=O)(=O)N(C)C)c1-c1ccc(SC)cc1 [Example 43-a, Dimethylsulphamic acid 4-(2,4-diamino-pyrimidin-5-ylmethyl)-6-ethoxy-4′-methylsulphanyl-biphenyl-2-yl ester]	4 µg/mL (≈ 8.17 µM)	2 µg/mL (≈ 4.08 µM)	6.7 nM	320 nM			
CCOc1cc(Cc2cnc(N)nc2N)cc(OCC2CC2)c1-c1ccc(CN2CCOCC2)s1 [Example 23-, 5-[3-Cyclopropylmethoxy-5-ethoxy-4-(5-morpholin-4-ylmethyl-thiophen-2-yl)-benzyl]-pyrimidine-2,4-diamine]	1 µg/mL (≈ 2.02 µM)	8 µg/mL (≈ 16.1 µM)	8 nM	2600 nM			
CCCS(=O)(=O)Oc1cc(Cc2cnc(N)nc2N)cc(OCC)c1-c1ccc(O)cc1 [Example 15-d, Propane-1-sulphonic acid 4-(2,4-diamino-primidin-5-ylmethyl)-6-ethoxy-4′-hydroxy-biphenyl-2-yl ester]	1 µg/mL (≈ 2.18 µM)	2 µg/mL (≈ 4.36 µM)	18 nM	62 nM			
CCOc1cc(Cc2cnc(N)nc2N)cc(OCC)c1-c1ccc2[nH]ncc2c1 [Example 02-g, 5-[3,5-Diethoxy-4-(1H-indazol-5-yl)-benzyl]-pyrimidine-2,4-diamine]	2 µg/mL (≈ 4.94 µM)	8 µg/mL (≈ 19.8 µM)	12 nM	650 nM			
CCOc1cc(Cc2cnc(N)nc2N)cc(OS(=O)(=O)C2CC2)c1-c1ccc(N)c(C)c1 [Example 34-d, Cyclopropanesulphonic acid 4′-amino-4-(2,4-diamino-pyrimidin-5-ylmethyl)-6-ethoxy-3′-methyl-biphenyl-2-yl ester]	1 µg/mL (≈ 2.13 µM)	2 µg/mL (≈ 4.26 µM)	2.4 nM	140 nM			
CCOc1cc(Cc2cnc(N)nc2N)cc(OCC)c1-c1ccc(CN2CCCC2)cc1 [Example 04-y, 5-(2,6-Diethoxy-4′-pyrrolidin-1-ylmethyl-biphenyl-4-ylmethyl)-pyrimidine-2,4-diamine]	8 µg/mL (≈ 17.9 µM)	8 µg/mL (≈ 17.9 µM)	92 nM	890 nM			
CCOc1cc(Cc2cnc(N)nc2N)cc(OCC2CCC2)c1-c1ccc2c(c1)OCO2 [Example 10-a, 5-(4-Benzof[1.3]dioxol-5-yl-3-cyclobutylmethoxy-5-ethoxy-benzyl)-pyrimidine-2,4-diamine]	8 µg/mL (≈ 17.8 µM)	8 µg/mL (≈ 17.8 µM)	34 nM	1400 nM			
CCOc1cc(Cc2cnc(N)nc2N)cc(OS(=O)(=O)C(C)C)c1-c1ccc(N)c(F)c1 [Example 33-b, Propane-2-sulphonic acid 4′-amino-4-(2,4-diamino-pyrimidin-5-ylmethyl)-6-ethoxy-3′-fluoro-4-ylmethyl-biphenyl-2-yl ester]	1 µg/mL (≈ 2.1 µM)	2 µg/mL (≈ 4.21 µM)	14 nM	260 nM			
CCOc1cc(Cc2cnc(N)nc2N)cc(OCC)c1-c1ccc2ncccc2c1 [Example 04-m, 5-(3,5-Diethoxy-4-quinolin-6-yl-benzyl)-pyrimidine-2,4-diamine]	8 µg/mL (≈ 19.3 µM)	8 µg/mL (≈ 19.3 µM)	72 nM	1800 nM			
CCOc1cc(Cc2cnc(N)nc2N)cc(OS(=O)(=O)N(C)C(C)C)c1-c1ccc(O)cc1 [Example 20-e, N-Isopropyl-N-methyl-sulphamic acid 4-(2,4-diamino-pvrimidin-5-ylmethyl)-6-ethoxy-4′-hydroxy-biphenyl-2-yl ester]	2 µg/mL (≈ 4.1 µM)	2 µg/mL (≈ 4.1 µM)	14 nM	160 nM			
CCOc1cc(Cc2cnc(N)nc2N)cc(OCC)c1-c1cccc(C=O)c1 [Example 04-u, 4′-(2,4-Diamino-pyrimidin-5-ylmethyl)-2′,6′-diethoxy-biphenyl-3-carbaldehyde]	4 µg/mL (≈ 10.2 µM)	8 µg/mL (≈ 20.4 µM)	65 nM	1900 nM			
CCOc1cc(Cc2cnc(N)nc2N)cc(OS(=O)(=O)N(CC)CC)c1-c1ccc(N)cc1 [Example 22-f, Diethylsulphamic acid 4′-amino-4-(2,4-diamino-pyrimidin-5-ylmethyl)-6-ethoxy-biphenyl-2-yl ester]	1 µg/mL (≈ 2.06 µM)	2 µg/mL (≈ 4.11 µM)	14 nM	150 nM			
CCOc1cc(Cc2cnc(N)nc2N)cc(OCC)c1-c1ccc(CN2CCOCC2)nc1 [Example 04-d, 5-[3,5-Diethoxy-4-(6-morpholin-4-ylmethyl-pyridin-3-yl)-benzyl]-pyrimidine-2,4-diamine]	4 µg/mL (≈ 8.61 µM)	8 µg/mL (≈ 17.2 µM)	65 nM	2100 nM			
CCOc1cc(Cc2cnc(N)nc2N)cc(OCC2(CC#N)CC2)c1-c1ccc(O)cc1 [Example 08-c, {1-[4-(2,4-Diamino-pyrimidin-5-ylmethyl)-6-ethoxy-4′-hydroxy-biphenyl-2-yloxymethyl]-cyclopropyl}-acetonitrile]	4 µg/mL (≈ 8.98 µM)	8 µg/mL (≈ 18 µM)	24 nM	1600 nM			
CCOc1cc(Cc2cnc(N)nc2N)cc(OS(=O)(=O)CC2CC2)c1-c1ccc(CN2CCOCC2)c(N)c1 [Example 38-d, Cyclopropylmethane-sulphonic acid 3′-amino-4-(2,4-diamino-pyrimidin-5-ylmethyl)-6-ethoxy-4′-morpholinemethyl-biphenyl-2-yl ester]			3.2 nM		1 µg/mL (≈ 1.76 µM)	4 µg/mL (≈ 7.03 µM)	240 nM
CCOc1cc(Cc2cnc(N)nc2N)cc(OS(=O)(=O)CC2CC2)c1-c1ccc(N)c(F)c1 [Example 38-b, Cyclopropylmethane-sulphonic acid 4′-amino-4-(2,4-diamino-pyrimidin-5-ylmethyl)-6-ethoxy-3′-fluoro-4-ylmethyl-biphenyl-2-yl ester]			6.5 nM		1 µg/mL (≈ 2.05 µM)	2 µg/mL (≈ 4.1 µM)	220 nM
CCOc1cc(Cc2cnc(N)nc2N)cc(OS(=O)(=O)N(C)C)c1-c1ccc(N)c(C#N)c1 [Example 43-c, Dimethylsulphamic acid 4′-amino-3′-cyano-4-(2,4-diamino-gvrimidin-5-ylmethyl)-6-ethoxy-biphenyl-2-yl ester]	2 µg/mL (≈ 4.14 µM)	2 µg/mL (≈ 4.14 µM)	24 nM	160 nM			
CCOc1cc(Cc2cnc(N)nc2N)cc(OS(=O)(=O)N2CCCC2)c1-c1cccc(N)c1 [Example 19-c, Pyrrolidine-1-sulphonic acid 3′-amino-4-(2,4-diamino-pyrimidin-5-vlmethyl)-6-ethoxy-biphenyl-2-yl ester]	1 µg/mL (≈ 2.06 µM)	2 µg/mL (≈ 4.13 µM)	19 nM	66 nM			
CCCS(=O)(=O)Oc1cc(Cc2cnc(N)nc2N)cc(OCC)c1-c1ccc(N)c(F)c1 [Example 32-e, Propane-1-sulphonic acid 4′-amino-4-(2,4-diamino-pyrimidin-5-ylmethyl)-6-ethoxy-3′-fluoro-4-ylmethyl-biphenyl-2-yl ester]			6.8 nM		1 µg/mL (≈ 2.1 µM)	4 µg/mL (≈ 8.41 µM)	280 nM
CCOc1cc(Cc2cnc(N)nc2N)cc(OCC2(/C=C/C#N)CC2)c1-c1ccc(O)cc1 [Example 08-d, (E)-3-[1-[4-(2,4-Diamino-pyrimidin-5-ylmethyl)-6-ethoxy-4′-hydrozy-biphenyl-2-yloxymethyl]-cyopropyl]-acrylonitrile]	4 µg/mL (≈ 8.74 µM)	8 µg/mL (≈ 17.5 µM)	16 nM	620 nM			
CCOc1cc(Cc2cnc(N)nc2N)cc(OCC)c1-c1ccc2c(c1)OCO2 [Example 02-r, 5-(4-Benzo[1,3]dioxol-5-yl-3,5-diethoxy-benzyl)-pyrimidine-2,4-diamine]	4 µg/mL (≈ 9.79 µM)	4 µg/mL (≈ 9.79 µM)	70 nM	2500 nM			
CCOc1cc(Cc2cnc(N)nc2N)cc(OS(=O)(=O)C(C)C)c1-c1ccc(O)cc1 [Example 15-c, Propane-2-sulphonic acid 4-(2,4-diamino-pyrimidin-5-ylmethyl)-6-ethoxy-4′-hydroxy-biphenyl-2-yl ester]	1 µg/mL (≈ 2.18 µM)	1 µg/mL (≈ 2.18 µM)	12 nM	64 nM			
